# Results from patent publication US20230312605A1, “PYRROLO[2,1-F][1,2,4]TRIAZINES AND PREPARATION AND USES THEREOF” (BioSplice Therapeutics, Inc., priority 2021, published 2023).
# Biological target: recombinant DYRK1A kinase (Homo sapiens (Human), UniProt Q13627)
# Test: DYRK1A kinase assay (Ser/Thr 18 peptide Z-lyte FRET assay)
# Type: biochemical
# Details: recombinant DYRK1A 0.25 µg/mL, ATP 15 µM, Ser/Thr peptide 18 4 µM, one hour at room temperature; table head prints EC50, method says IC50
# Procedure: Representative compounds were screened using the assay procedure for DYRK1A kinase activity as described below.
# Each compound was dissolved in DMSO as a 10 mM stock and used to prepare compound source plates. Serial dilution (1:3, 11-point dose-response curves from 10 µM to 0.00016 µM) and compound transfer was performed using the ECHO 550 (Labcyte, Sunnyvale, CA) into 1536-well black-walled round bottom plates (Corning).
# The DYRK1A kinase assay was run using the Ser/Thr 18 peptide Z-lyte assay kit according to manufacturer’s instructions (Life Technologies- a Division of Thermo-Fisher). This is a non-radioactive assay using fluorescence resonance energy transfer (FRET) between coumarin and fluorescein to detect kinase activity which is represented as a ratio of coumarin emission/fluorescein emission.
# Briefly, recombinant DYRK1A kinase, ATP and Ser/Thr peptide 18 were prepared in 1X Kinase buffer to final concentrations of 0.25 µg/mL, 15 µM, and 4 µM respectively. The mixture was allowed to incubate with the representative compounds for one hour at room temperature. All reactions were performed in duplicate. Unphosphorylated (“0% Control”) and phosphorylated (“100% control”) forms of Ser/Thr 18 served as control reactions. Additionally, an 11-point dose-response curve of Staurosporine (1uM top) was run to serve as a positive compound control.
# After incubation, Development Reagent A was diluted in Development Buffer then added to the reaction and allowed to further incubate for one hour at room temperature. The plate was read at Ex 400 Em 455 to detect the coumarin signal and Ex 400 Em 520 to measure the signal (EnVision Multilabel Plate Reader, PerkinElmer).
# The Emission ratio (Em) was calculated as a ratio of the coumarin (C) emission signal (at 445 nm)/Fluorescein (F) emission signal (at 520 nm). The percent phosphorylation was then calculated using the following formula: [1 — ((Em ratio X F100%)—C100%)/ ((C0%—C100%) + (Em ratio X (F100% - F0%)))]. Dose-response curves were generated, and inhibitory concentration (IC50) values were calculated using non-linear regression curve fit in the Dotmatics’ Studies Software (Bishops Stortford, UK).
row,SMILES,EC50
1,"Cc1nc2ccc(-c3ccn4nc(N[C@H]5CC[C@@H](O)CC5)ncc34)nc2n1CC(F)F [Compound 1109, cis-4-((5-(3-(2,2-Difluoroethyl)-2-methyl-3H-imidazo[4,5-b]pyridin-5-yl)pyrrolo[2,1-f][1,2,4]triazin-2-yl)amino)cyclohexan-1-ol]",6 nM
2,"c1cn2cc(-c3ccn4nc(NC5CCOCC5)ncc34)cnc2n1 [Compound 280, 5-(imidazo[1,2-a]pyrimidin-6-yl)-N-(tetrahydro-2H-pyran-4-yl)pyrrolo[2,1-f][1,2,4]triazin-2-amine]",15 nM
3,"CO[C@H]1C[C@@H](Nc2ncc3c(-c4ccc5nc(C)n(CC(F)F)c5n4)ccn3n2)C1 [Compound 1091, 5-(3-(2,2-Difluoroethyl)-2-methyl-3H-imidazo[4,5-b]pyridin-5-yl)-N-(cis-3-methoxycyclobutyl)pyrrolo[2,1-f][1,2,4]triazin-2-amine]",3340 nM
4,"C[C@]1(O)CC[C@H](Nc2ncc3c(-c4ccn5nccc5c4)ccn3n2)CC1 [Compound 1891, trans-1-Methyl-4-((5-(pyrazolo[1,5-a]pyridin-5-yl)pyrrolo[2,1-f][1,2,4]triazin-2-yl)amino)cyclohexan-1-ol]",11 nM
5,"Cc1nc2ccc(-c3ccn4nc(NC5CCC6(CC5)COC6)ncc34)nc2n1CC(F)F [Compound 1961, 5-(3-(2,2-Difluoroethyl)-2-methyl-3H-imidazo[4,5-b]pyridin-5-yl)-N-(2-oxaspiro[3.5]nonan-7-yl)pyrrolo[2,1-f][1,2,4]triazin-2-amine]",3 nM
6,"CO[C@H]1CC[C@H](Nc2ncc3c(-c4cnc5nc(C)n(CC(F)F)c5c4)ccn3n2)CC1 [Compound 686, 5-(1-(2,2-Difluoroethyl)-2-methyl-1H-imidazo[4,5-b]pyridin-6-yl)-N-(trans-4-methoxycyclohexyl)pyrrolo[2,1-f][1,2,4]triazin-2-amine]",5 nM
7,"CC(C)(F)CNc1ncc2c(-c3ccc4nccn4n3)ccn2n1 [Compound 145, N-(2-Fluoro-2-methylpropyl)-5-(imidazo [1,2-b]pyridazin-6-yl)pyrrolo[2,1-f] [1,2,4]triazin-2-amine]",45 nM
8,"Cc1nc2ccc(-c3ccn4nc(N[C@H]5C[C@@H](N6CCOCC6)C5)ncc34)nc2n1CC(F)F [Compound 1892, 5-(3-(2,2-Difluoroethyl)-2-methyl-3H-imidazo[4,5-b]pyridin-5-yl)-N-(cis-3-morpholinocyclobutyl)pyrrolo[2,1-f][1,2,4]triazin-2-amine]",2 nM
9,"CN1CC(Nc2ncc3c(-c4ccc5nccn5c4)ccn3n2)C1 [Compound 64, 5-(Imidazo[1,2-a]pyridin-6-yl)-N-(1-methylazetidin-3-yl)pyrrolo[2,1-f] [1,2,4]triazin-2-amine]",192 nM
10,"Cc1nc2ccc(-c3ccn4nc(NC[C@@H](C)O)ncc34)nc2n1CC(F)F [Compound 1831, (R)-1-((5-(3-(2,2-Difluoroethyl)-2-methyl-3H-imidazo[4,5-b]pyridin-5-yl)pyrrolo [2,1-f] [1,2,4]triazin-2-yl)amino)propan-2-ol]",7 nM
11,"CC(=O)N[C@]1(C)C[C@@H](Nc2ncc3c(-c4ccc5nc(C)n(CC(F)F)c5c4)ccn3n2)C1 [Compound 1920, N-((1r,3r)-3-((5-(1-(2,2-Difluoroethyl)-2-methyl-1H-benzo[d]imidazol-6-yl)pyrrolo[2,1-f] [1,2,4]triazin-2-yl)amino)-1-methylcyclobutyl)acetamide]",1 nM
12,"CC(C)CN1CC2(CC(Nc3ncc4c(-c5cnc6nccn6c5)ccn4n3)C2)C1 [Compound 1756, 5-(Imidazo[1,2-a]pyrimidin-6-yl)-N-(2-isobutyl-2-azaspiro[3.3]heptan-6-yl)pyrrolo [2,1-f][1,2,4]triazin-2-amine]",18 nM
13,"CC(C)(F)CNc1ncc2c(-c3ccc4ncccc4c3)ccn2n1 [Compound 1281, N-(2-Fluoro-2-methylpropyl)-5-(quinolin-6-yl)pyrrolo[2,1-f][1,2,4]triazin-2-amine]",15 nM
14,"Cc1cnc2ncc(-c3ccn4nc(NC5CCC(F)(F)CC5)ncc34)cn12 [Compound 398, N-(4,4-Difluorocyclohexyl)-5-(3-methylimidazo[1,2-a]pyrimidin-6-yl) pyrrolo[2,1-f] [1,2,4]triazin-2-amine]",12 nM
15,"CC(=O)N1C[C@@H](F)[C@@H](Nc2ncc3c(-c4ccc5nc(C)n(CC(F)F)c5n4)ccn3n2)C1 [Compound 1940, 1-((3S,4R)-3-((5-(3-(2,2-Difluoroethyl)-2-methyl-3H-imidazo[4,5-b]pyridin-5-yl)pyrrolo[2,1-f] [1,2,4]triazin-2-yl)amino)-4-fluoropyrrolidin-1-yl)ethan-1-one]",7 nM
16,"Cc1nc2ccc(-c3ccn4nc(N[C@H]5CCCOC5)ncc34)nc2n1CC(F)F [Compound 1864, (S)-5-(3-(2,2-Difluoroethyl)-2-methyl-3H-imidazo[4,5-b]pyridin-5-yl)-N-(tetrahydro-2H-pyran-3-yl)pyrrolo[2,1-f][1,2,4]triazin-2-amine]",3 nM
17,"Cc1nc2ccc(-c3ccn4nc(N[C@H]5CCN(CC(C)C)C[C@H]5F)ncc34)nc2n1CC(F)F [Compound 1909, 5-(3-(2,2-difluoroethyl)-2-methyl-3H-imidazo[4,5-b]pyridin-5-yl)-N-((3R,4S)-3-fluoro-1-isobutylpiperidin-4-yl)pyrrolo[2,1-f][1,2,4]triazin-2-amine]",5 nM
18,"CN1CCC(Nc2ncc3c(-c4ccc5nccn5c4)ccn3n2)CC1 [Compound 66, 5-(Imidazo[1,2-a]pyridin-6-yl)-N-(1-methylpiperidin-4-yl)pyrrolo[2,1-f] [1,2,4]triazin-2-amine]",264 nM
19,"CC(=O)N1CC[C@H](Nc2ncc3c(-c4ccc5nc(C)n(CC(F)F)c5n4)ccn3n2)[C@H](F)C1 [Compound 1952, 1-((3R,4S)-4-((5-(3-(2,2-Difluoroethyl)-2-methyl-3H-imidazo[4,5-b]pyridin-5-yl)pyrrolo[2,1-f] [1,2,4]triazin-2-yl)amino)-3-fluoropiperidin-1-yl)ethan-1-one]",4 nM
20,"Cc1nc2ccc(-c3ccn4nc(N[C@H]5CN(C)C[C@H]5F)ncc34)nc2n1CC(F)F [Compound 1903, 5-(3-(2,2-Difluoroethyl)-2-methyl-3H-imidazo[4,5-b]pyridin-5-yl)-N-((3S,4R)-4-fluoro-1-methylpyrrolidin-3-yl)pyrrolo[2,1-f][1,2,4]triazin-2-amine]",12 nM
21,"Cc1nc2ccc(-c3ccn4nc(N[C@H]5C[C@@H](CO)C5)ncc34)nc2n1CC(F)F [Compound 1834, (cis-3-((5-(3-(2,2-Difluoroethyl)-2-methyl-3H-imidazo[4,5-b]pyridin-5-yl)pyrrolo[2,1-f][1,2,4]triazin-2-yl)amino)cyclobutyl)methanol]",3 nM
22,"Cc1nc2ccc(-c3ccn4nc(NCC(C)(C)O)ncc34)nc2n1CC(F)F [Compound 1833, 1-((5-(3-(2,2-Difluoroethyl)-2-methyl-3H-imidazo[4,5-b]pyridin-5-yl)pyrrolo[2,1-f][1,2,4]triazin-2-yl)amino)-2-methylpropan-2-ol]",8 nM
23,"Cc1nc2ccc(-c3ccn4nc(NCC5CN(C)CCO5)ncc34)nc2n1CC(F)F (stereo not shown) [Compound 1848, 5-(3-(2,2-Difluoroethyl)-2-methyl-3H-imidazo[4,5-b]pyridin-5-yl)-N-((4-methylmorpholin-2-yl)methyl)pyrrolo[2,1-f][1,2,4]triazin-2-amine]",5 nM
24,"Cc1nc2ccc(-c3ccn4nc(NC5CCC(F)(F)CC5)ncc34)nc2n1CC1CNC1 [Compound 1873, 5-(3-(Azetidin-3-ylmethyl)-2-methyl-3H-imidazo[4,5-b]pyridin-5-yl)-N-(4,4-difluorocyclohexyl)pyrrolo[2,1-f][1,2,4]triazin-2-amine]",131 nM
25,"CC(C)CNc1ncc2c(-c3cnc4nccn4c3)ccn2n1 [Compound 215, 5-(Imidazo[1,2-a]pyrimidin-6-yl)-N-isobutylpyrrolo[2,1-f][1,2,4]triazin-2-amine]",6 nM
26,Cc1nc2ncc(-c3ccn4nc(N[C@H]5CC[C@@H](OCC(F)F)CC5)ncc34)cc2n1CC(F)F [Compound 1877],2 nM
27,"CC(=O)N1C[C@H](F)[C@H](Nc2ncc3c(-c4ccc5nc(C)n(CC(F)F)c5n4)ccn3n2)C1 [Compound 1941, 1-((3R,4S)-3-((5-(3-(2,2-Difluoroethyl)-2-methyl-3H-imidazo[4,5-b]pyridin-5-yl)pyrrolo[2,1-f] [1,2,4]triazin-2-yl)amino)-4-fluoropyrrolidin-1-yl)ethan-1-one]",4 nM
28,"Cc1nc2ccc(-c3ccn4nc(N[C@@H]5[C@@H]6COC[C@@H]65)ncc34)nc2n1CC(F)F [Compound 1914, N-((lR,5S,6s)-3-Oxabicyclo[3.1.0]hexan-6-yl)-5-(3-(2,2-difluoroethyl)-2-methyl-3H-imidazo[4,5-b]pyridin-5-yl)pyrrolo[2,1-f][1,2,4]triazin-2-amine]",5 nM
